Data: US8921424B2, “Histone deacetylase inhibitors, process for preparation and uses thereof” (Zhejiang Hisun Pharmaceutical Co. Ltd., priority 2007, dated 2014)

Tests used:
MDAMB435 = test: Cell-based proliferation assay (SRB), MDAMB435; settings: Homo sapiens
Protocol: (§1) Cell-Based Proliferation Assay for Determination of GI50 Values
(§2) A rapid multiwell plate assay using Sulforhodamine B (SRB) protein stain was adopted to evaluate the growth inhibitory effects of the compounds of the present invention. The screening panel of cancer cell lines includes Colo205 and HCT116 colon cancer cells, MDA-MB231 and MDA-MB435 chest cancer cells, A549 lung cancer cells, and Chinese hamster ovary cell line CHO, which were obtained from ATCC.
(§3) The cell line Colo205 is grown in RPMI 1640 medium containing 2 mM L-glutamine, 5% fetal bovine serum, and 1.0 mM sodium pyruvic acid. Cell lines A549 and MDA-MB231 are grown in RPMI 1640 medium containing 2 mM L-glutamine and 5% fetal bovine serum. The cell line MDA-MB435 is grown in DMEM medium containing 2 mM L-glutamine and 5% fetal bovine serum. The cell lines HCT 116 is grown in IMEM medium containing 2 mM L-glutamine and 5% fetal bovine serum. The CHO cell line, used as a normal control on toxicity, is grown in a special medium for cell line. For a typical screening experiment, A549 and Colo205 cells are inoculated into 96-well microtiter plates, with 100 μL per well, and 2000 and 5000 cells per well respectively for either cell line. MDA-MB435, HCT116, MDA-MB231 and CHO cells are also inoculated into 96-well microtiter plates, with 6000 cells per well. After cell inoculation, the microtiter plates are incubated at 37° C., 5% CO2, and 100% relative humidity for 24 hr in order to make cells adhere to well wall.
(§4) After 24 h incubation or time zero for drug addition, with each cell line 50 μl of cold 50% (w/v) TCA is added to wells used for control to fix cells in situ. Also at time zero, cells in other wells are treated with 100 μl of compound of different concentrations for 24 hr, 48 hr, and 72 hr respectively, with varying final compound concentration (0.1 μM, 1 μM, 5 μM 10 μM). For each treatment duration at each compound concentration, there are triplicate wells, as well as an array of control wells including a blank control well (cell culture medium only, no cells), a no-compound control well (adding same volume of cell culture medium but no compound), a positive control well (treated with Suberoylanilide hydroxamic acid (SAHA)), and normal cell well control (CHO cells). Following the addition of compounds, cell plates are incubated for 24 h, 48 h or 72 h per treatment group at 37° C., 5% CO2, and 100% relative humidity. The Treatment is then terminated by addition of cold TCA and incubation of 1 hr at 4° C. The supernatant is discarded, and all wells are washed five times with de-ioned water and air dried. Then each well is added with 100 μl sulforhodamine B (SRB) solution (0.4% (w/v) made in 1% acetic acid) and cell plates are incubated for 20-30 minutes at room temperature. After staining, unbound dye is removed by washing five times with 1% acetic acid and the plates are air dried. Bound stain is subsequently solubilized with 10 mM (200 μL) Tris base with the help of 5 min platform vibration or pipetting up and down, and the absorbance is read on an automated plate reader (M5 detection system, MD Group Ltd.) at a wavelength of 565 nm (calibrated zero reading of blank control at wavelength of 690 nm). The analytical software, XL-fit has been used to generate GI50 from a series of data thus obtained.

HL-60 = test: Cell-based proliferation assay (SRB), HL-60; settings: Homo sapiens
Colo205 = test: Cell-based proliferation assay (SRB), Colo205; settings: Homo sapiens
Protocol: as §1, §2, §3, §4

SKOV-3 = test: Cell-based proliferation assay (SRB), SKOV-3; settings: Homo sapiens
Protocol: as §1, §2, §3, §4

MDAMB231 = test: Cell-based proliferation assay (SRB), MDAMB231; settings: Homo sapiens, MDA-MB-231; Table 4
Protocol: as §1, §2, §3, §4

COLO-205 = test: Xenograft model, COLO-205; format: in vivo, mouse; settings: i.p., 12 days
Description: (§5) In Vivo Anti-Neoplastic (or Anti-Tumour) Effect of HDAC Inhibiting Agents
(§6) The efficacy of the selected compounds of the invention can then be determined using in vivo animal (mouse) xenograft studies. The animal xenograft model is one of the most commonly used in vivo cancer models for studying the pharmaceutically effective dosage, administration route, frequency and interval.
(§7) Athymic nude mice (Female, 5-6 week old, BALB/c, nu/nu, approximately 18-20 g body weight) are obtained from Vital River. The animals are kept on a 12 h light/dark cycle (0700-1900); food and water are provided ad libitum. All in vivo experiments are carried out in a specific pathogen-free facility (22° C.). The human cancer […] transplant model in athymic nude mice is constructed using xenograft cell lines colon cancer cell line colo205, breast cancer cell line MDA-MB435, and lung cancer cell line A549, all obtained from ATCC. Cultured cells are removed from culture plate wall by digestion, collected and suspended in cell culture medium containing no FBS, at a concentration of 5×10^6/0.2 ml, and brought to animal facility on ice. is 0.2 ml cell suspension is given to mice via rear left auxilliary subcutaneous scapular injection, using Size 6 needle. Animals are measured every 2-3 days on the size of tumor formation. After two weeks, those tumors that have been well grown without leak are removed from animals under sterile condition, split into several small fractions (2-3 mm in diameter), and injected s.c. into the rear left auxilliary subcutaneous scapular of animals. […] While the animas being treated, body weight of the animal and size of the tumor are measured every 3 days, with mortality also recorded. […] Tumors are removed, weighed, and measured. […] Tumor-inhibition rate, mortality, as well as relative tumor proliferationrate T/C (%) are calculated. […]
(§8) Significant differences in tumor growth rate were determined by analysis of variance (Table 5).

MDA-MB-435 = test: Xenograft model, MDA-MB-435; format: in vivo, mouse; settings: i.p., 15 days
Description: as §5, §6, §7, §8

PC-3 = test: Xenograft model, PC-3; format: in vivo, mouse; settings: i.p., 15 days

**Q.** Which results are given for `CCCCCNc1cc(/C=C/C(=O)NO)ccc1SCCN(CC)CC` [Example 2, 3-(4-(2-(diethylamino)ethylthio)-3-(pentylamino)phenyl)-N-hydroxy-acrylamide]?
**A.** GI50 (MDAMB435; MDA-MB-435, Table 3): 3.1 µM; GI50 (MDAMB435; MDA-MB-435, Table 4): 3.1 µM; GI50 (HL-60; HL-60, Table 3): 3.51 µM; GI50 (HL-60; HL-60, Table 4): 3.51 µM; GI50 (Colo205; COLO 205, Table 3): 4.23 µM; GI50 (Colo205; COLO 205, Table 4): 4.23 µM; GI50 (SKOV-3; SK-OV-3, Table 3): 5.46 µM; GI50 (SKOV-3; SK-OV-3, Table 4): 5.46 µM; GI50 (MDAMB231): 3.5 µM; T/C(%) COLO-205 (COLO-205; 200 mg/kg): 42% (200,12); T/C(%) MDA-MB-435 (MDA-MB-435; 200 mg/kg): >60% (200,15); T/C(%) PC-3 (PC-3; 200 mg/kg): 43% (200,15)

**Q.** With `O=C(CCCCCCC(=O)Nc1ccccc1)NO` [SAHA, suberoylanilide hydroxamic acid, reference compound] as the compound, how does the GI50 (MDAMB435; MDA-MB-435, Table 3) read?
**A.** Its GI50 is 4.1 µM.

**Q.** What about the GI50 (HL-60; HL-60, Table 3) of the same compound?
**A.** The GI50 was 2 µM.

**Q.** And the GI50 (Colo205; COLO 205, Table 3)?
**A.** Its GI50 is 3.15 µM.

**Q.** And the GI50 (SKOV-3; SK-OV-3, Table 3)?
**A.** The GI50 was 3.56 µM.

**Q.** And the GI50 (MDAMB231)?
**A.** The GI50 was 5.1 µM.

**Q.** What about the “T/C(%) COLO-205” value (COLO-205; 80 mg/kg) of the same compound?
**A.** The value was >60% (80,12).

**Q.** What about the “T/C(%) MDA-MB-435” value (MDA-MB-435; 80 mg/kg) of the same compound?
**A.** The value was >60% (80,15).

**Q.** What about the “T/C(%) PC-3” value (PC-3; 80 mg/kg) of the same compound?
**A.** The value was 37% (80,15).

**Q.** With `CCCCc1nc2cc(/C=C/C(=O)NO)ccc2n1CCN(CC)CC` [SB939, reference compound] as the compound, how does the GI50 (MDAMB435; MDA-MB-435, Table 3) read?
**A.** The GI50 was 2.65 µM.

**Q.** What about the GI50 (MDAMB435; MDA-MB-435, Table 4) of the same compound?
**A.** The GI50 was 2.65 µM.

**Q.** What about the GI50 (HL-60; HL-60, Table 3) of the same compound?
**A.** The GI50 was 0.645 µM.

**Q.** And the GI50 (HL-60; HL-60, Table 4)?
**A.** Its GI50 is 0.645 µM.

**Q.** And the GI50 (Colo205; COLO 205, Table 3)?
**A.** The GI50 was 2.41 µM.

**Q.** And the GI50 (Colo205; COLO 205, Table 4)?
**A.** The GI50 was 2.41 µM.

**Q.** And the GI50 (SKOV-3; SK-OV-3, Table 3)?
**A.** The GI50 was 5.25 µM.

**Q.** And the GI50 (SKOV-3; SK-OV-3, Table 4)?
**A.** The GI50 was 5.25 µM.

**Q.** What about the GI50 (MDAMB231) of the same compound?
**A.** Its GI50 is 2.35 µM.

**Q.** What about the “T/C(%) COLO-205” value (COLO-205; 30 mg/kg) of the same compound?
**A.** The value was 55% (30,12).

**Q.** And the “T/C(%) MDA-MB-435” value (MDA-MB-435; 30 mg/kg)?
**A.** The value was 58% (30,15).

**Q.** And the “T/C(%) PC-3” value (PC-3; 30 mg/kg)?
**A.** The value was >60% (30,15).
